Tests used:
Format in all cases: cell-based, mouse
OT-1 CTL cells = assay: OT-1 CD8+ cell proliferation by BrdU incorporation; details: combination with IFN-γ; DC and VM neuronal cultures
Excerpt: The capacity of CTLs to respond to MHC-I induced SN neurons was examined first, by following CTL proliferation using 5-bromo-2-deoxyuridine (BrdU) incorporation.
Primary DCs were obtained from mouse […] femur hematopoietic stem cells. In brief, mouse femur hematopoietic stem cells from bone marrow were harvested from the hind legs of 8 to 12-week old male wild-type C57BL/6J and plated at 2×10^6 cells/ml density in DC culture medium (DMEM supplemented with 10% FBS, lx non-essential amino acids, 2 mM L-glutamine, 1 mM sodium pyruvate and 20 mM HEPES). For differentiation to dendritic cells, 10 ng/ml of recombinant mouse GM-CSF was added to media. Cells were fed every 2 days with fresh DMEM containing GM-CSF, and the cultures were trypsinized after 8 days and plated at 4×10^5 cells/cm^2 density to be used for experiments the following day (Tallóczy et al., 2008). OT-1 CD8^+ and OT-2 CD4^+ T cell lines, a kind gift from Dr. Raphael Clynes (Department of Medicine and Microbiology, Columbia University Medical Center), express a transgene encoding T cell receptor that specifically recognizes […] (SEQ ID NO: 9) peptide (derived from OVA) bound to MHC-I H-2Kb or to MHC-II I-A/I-E (Hogquist et al., 1994). Activated primary OT-1 and OT-2 T cells were generated by the addition of […] […]
OT-1 CD8^+ cell proliferation was assessed by BrdU incorporation. […]

VM DA (TH+) neurons [1] = assay: OT-1 T cell cytotoxicity (killing) assay on VM DA neurons
Method: OT-1 CD8^+ cell proliferation was assessed by BrdU incorporation. For OT-1 T cell cytotoxicity assays, DC and VM (from C57BL/6 and 56.129P2-B2mtm1Unc/J mice) cell cultures were incubated with neuronal medium or neuronal medium containing 100 ng/ml of IFN-γ (R&D Systems). Neurons were loaded with or without […] (SEQ ID NO: 9) peptide (1 μM), and, subsequently in vitro activated OT-1 cells were added at a density of 100,000 cells/well and co-incubated for 24 h.
We used the same conditions for VM cell cultures with microglial medium previously stimulated with LPS, NM or α-syn instead of IFN-γ. Neurons were pre-incubated with IFN-γ and […] (SEQ ID NO: 9) peptide as above, and then with: 1) a pan-caspase general inhibitor (Z-VAD-FMK, 20 μM, 24h, IMGENEX); 2) a specific granzyme/perforin inhibitor (concanamycin A, 100 nM, 24h, Sigma Aldrich); 3) a specific Fas/FasL antagonist (Kp7-6, 1 mM, 24h, EMD Biosciences) and 4) concanamycin A and Kp7-6 together. OT-1 cells were then added to the culture (100,000 cells/well) and maintained for 24 h.
Following immunocytochemical staining of VM neurons, we assessed the proportion of surviving DA (TH^+) and non-DA cells (MAP-2^+, TH^−). Total numbers of TH^+ and MAP-2^+ neurons were counted in 24 fields surrounding the border of the well at 20× magnification. The number of surviving TH+ neurons with an intact soma and two or more neurites equal to or greater than the diameter of the cell soma was counted and normalized to the number in untreated cultures.

VM DA (TH+) neurons [2] = assay: Antigen processing and presentation, […]-MHC-I immunolabel; details: IFN-γ with extracellular SIINFEKL, positive control
Method: Following exposure of SN neuronal cultures to OVA or vehicle for 7 days, neurons were exposed to IFN-γ or saline for 72 h (note that these cultures were never exposed to […] (SEQ ID NO: 9)). The cultures were then double immunolabeled for TH and an antibody that recognizes only the MHC-I complex when is occupied by […] (SEQ ID NO: 9) ([…]-MHC-I). Occasional label of astrocytes, but not neurons, for […]-MHC-I was observed when the cultures were exposed to the vehicle, IFN-γ, or OVA alone (FIG. 5A). […] The results herein indicate that OVA had been processed to […] (SEQ ID NO: 9) within these mixed neuron/astrocyte cultures and loaded into the MHC-I groove within neuronal cytosol, and that the resulting complex was presented on the neuronal plasma membrane.
IFN-γ (R&D Systems) was used at a range of non-toxic concentrations for neurons or OT-1 cells (10 μg/ml-100 ng/ml, 72h). […]
Images were captured using a Leica SP5 microscope system. There was no fluorescence bleed-through of secondary antibodies under the conditions used. […]
In order to assess the proportion of TH^+ and MAP-2^+ neurons that expressed MHC-I^+, first TH^+ and MAP-2^+ neurons were counted in 24 fields surrounding the border of the well at 20× magnification. The number of TH^+ or MAP-2^+ neurons with intact soma and two or more neurites equal to or greater than the diameter of the cell soma was counted. […]

primary VM neurons = assay: MHC-I expression of VM neurons after microglial conditioned medium
Method: IFN-γ (R&D Systems) was used at a range of non-toxic concentrations for neurons or OT-1 cells (10 μg/ml-100 ng/ml, 72h). 12-well cell culture plates were pre-treated with LPS (500 ng/ml, Sigma-Aldrich), NM (5 μg/ml), α-syn, Nit-α-syn or Mut-α-syn (200 μg/ml, kindly provided by Peter Lansbury, Harvard University) for 72 h before plating 45,000-50,000 microglial cells/well for an additional 24h. A neutralizing IFN-γ antibody (1:500, PBL InterferonSource) was used to block IFN-γ released from microglia. VM neurons were incubated for 72 h with microglial medium pre-stimulated by LPS, NM, α-syn, Nit-α-syn or Mut-α-syn. As a control experiment, we directly incubated VM neurons with the same compounds in the absence of microglia. In another set of experiments, VM, cortical and striatal primary neurons were incubated for 72 h with microglial medium pre-stimulated by LPS, NM, α-syn. NM was induced in SN cultured neurons by using L-DOPA (Sulzer et al., 2000) (Sigma Aldrich). For foreign protein processing and subsequent antigen presentation, VM cultures were maintained for 7 days in either 1) BSA/serum-free neuronal medium, 2) BSA/serum-free supplemented with OVA (2.5 mg/ml), adding IFN-γ (100 ng/ml) or saline for an additional 72h.
Images were captured using a Leica SP5 microscope system. There was no fluorescence bleed-through of secondary antibodies under the conditions used. MHC-I label observed in the neuronal cultures obtained from wild type mice was absent in neurons from β2m KO mice (FIG. 3A).
In order to assess the proportion of TH^+ and MAP-2^+ neurons that expressed MHC-I^+, first TH^+ and MAP-2^+ neurons were counted in 24 fields surrounding the border of the well at 20× magnification. The number of TH^+ or MAP-2^+ neurons with intact soma and two or more neurites equal to or greater than the diameter of the cell soma was counted. Then, the fluorescent filter was inserted for each field to determine how many of these neurons also expressed MHC-I.

[3] = test system: primary microglial cultures; assay: ELISA of IFN-γ released by microglia; details: primary microglial culture
Method: Briefly, for microglial cultures cells dissociated from 5 cortexes of 0-3 days old C57/B16 mice were seeded onto 75 cm^2 cell culture flasks in microglial culture medium (MEM supplemented with calf serum, glucose 45%, penicillin/streptomycin, insulin (25 mg/ml) and 200 mM glutamine) in a 5% CO^2 incubator at 37° C. (Sulzer et al., 2008). Two weeks later, microglia were detached from flasks by mild shaking and plated on 12 well-plates at a density of 45,000-50,000 microglial cells/well. For neuronal cultures, the area of interest was dissected and neurons were dissociated and plated at a density of 80,000/cm′ onto a layer of rat cortical glial cells grown on round glass coverslips and maintained in culture medium without added GDNF (glial cell line-derived neurotrophic factor) in a 5% CO^2 incubator at 37° C. for 5-9 days)(Sulzer et al., 2008). IFN-γ (R&D Systems) was used at a range of non-toxic concentrations for neurons or OT-1 cells (10 μg/ml-100 ng/ml, 72h). […] The concentration of IFN-γ released by microglia (plated as above) was measured by an ELISA kit (eBioscience) that detected the amount of this proinflammatory cytokine in a range of […].

Row | Substance | CTL proliferation (OT-1 CTL cells) | neuronal death (VM DA (TH+) neurons [1]; combination of CTLs, IFN-γ and SIINFEKL, MHC-I null (KO) SN neurons) | TH+ neurons killed (VM DA (TH+) neurons [1]; combination of CTLs, IFN-γ and SIINFEKL, wild type neurons) | TH+ neurons with SIINFEKL-MHC-I immunolabel (VM DA (TH+) neurons [2]) | cell surface MHC-I presentation by VM neurons (primary VM neurons; conditioned medium from microglia incubated 72 hours with the substance) | induction of neuronal MHC-I (primary VM neurons; cultures directly exposed, absence of microglial cells) | neuronal death (VM DA (TH+) neurons [1]; SIINFEKL, CTLs and medium conditioned by microglia exposed to the substance) | IFN-γ secretion, in words [3]
1 | SIINFEKL [8 amino acid peptide derived from OVA] | induced similar CTL proliferation by both DC and VM neuronal cultures | no neuronal death was triggered | 55% | ~70% |  |  |  | 
2 | lipopolysaccharide [LPS, reference compound] |  |  |  |  | elicited cell surface MHC-I presentation | no induction | caused extensive neuronal death | induced IFN-γ secretion
